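Protocol summary: plate cells (96-well), add compound at 5 concentrations, incubate 48 h, interpolate endpoints linearly. The concentration for 50% growth inhibition is given as GI50. The concentration for full growth arrest is given as TGI.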
How the values were obtained:
Assay in all cases: DTP human tumour cell line panel, 48 h
DLD-1 colon = system: DLD-1 colon
DMS 114 small cell lung = system: DMS 114 small cell lung
M14 melanoma = system: M14 melanoma
M19-MEL melanoma = system: M19-MEL melanoma
MOLT-4 leukemia = system: MOLT-4 leukemia
SR leukemia = system: SR leukemia
LXFL 529 NSCLC = system: LXFL 529 NSCLC
SNB-19 CNS = system: SNB-19 CNS
XF 498 CNS = system: XF 498 CNS
MCF7 breast = system: MCF7 breast
NCI/ADR-RES ovarian = system: NCI/ADR-RES ovarian
PC-3 prostate = system: PC-3 prostate
MDA-N = system: MDA-N

SMILES	TGI (DLD-1 colon) [µM]	TGI (DMS 114 small cell lung) [µM]	TGI (M14 melanoma) [µM]	TGI (M19-MEL melanoma) [µM]	TGI (MOLT-4 leukemia) [µM]	TGI (SR leukemia) [µM]	TGI (LXFL 529 NSCLC) [µM]	TGI (SNB-19 CNS) [µM]	TGI (XF 498 CNS) [µM]	GI50 (M14 melanoma) [µM]	GI50 (MCF7 breast) [µM]	TGI (MCF7 breast) [µM]	GI50 (MOLT-4 leukemia) [µM]	GI50 (NCI/ADR-RES ovarian) [µM]	TGI (NCI/ADR-RES ovarian) [µM]	GI50 (PC-3 prostate) [µM]	TGI (PC-3 prostate) [µM]	GI50 (SNB-19 CNS) [µM]	GI50 (SR leukemia) [µM]	TGI (MDA-N) [µM]
O=C1CN2C(Cl)(Cl)C2(c2ccccc2)c2cc(Cl)ccc2N1CC(F)(F)F (centres undefined)	42.9	66.6	77.5	> 100	55.8	69.9														
CC1=C[C@]2(CC(C)C3C(CC4(C)C5CCC6C(C)(C)C(=O)CC[C@@]67C[C@@]57CC[C@]34C)O2)OC1=O (some centres undefined)	> 100	77.1	> 100		> 100	> 100	> 100	83.7	30											
CCOc1ccc(/C=C/[N+](=O)[O-])cc1			4.24		42.9	6.37		22		2.06	3.4	13.5	5.7	33	> 100	12.4	33.7	8.95	2.56	
O=C(Nc1ccc(Cl)cc1)/C(Cc1cccc[n+]1[O-])=N\Nc1ccc([N+](=O)[O-])cc1[N+](=O)[O-]	> 100	> 100	> 100	> 100	> 100		> 100	> 100												
COc1c2c(cc3c(CCc4ccccc4)cc(=O)oc13)CCC(C)(C)O2	> 100	> 100	> 100	> 100	> 100	> 100	> 100													
CN1C2C=C(c3ccccc3)CC1CC2 (centres undefined)	> 100		> 100	> 100	> 100	> 100	> 100	> 100	> 100											
CCOc1ccc2c(ccc(/C=C\c3cc(C)c4cccnc4c3O)[n+]2C)c1	4.32		18.7	> 100	10.6	5.73	14	30.7							> 100		6.14			
Nc1ncnc2c1ncn2C1CCC(CO)O1 (centres undefined)	> 100	> 74.1		> 100	> 100			> 100	> 100			> 100			> 77.4					
CO/N=C1/c2sccc2[C@H](NC(=O)C(F)(F)F)[C@@H]1O			> 100		> 100	> 100						> 100			> 100		> 100			> 100
O=C1Nc2ccccc2Nc2nc3cccccc-3c21	> 100	> 100	> 100	> 100		> 100	> 100	> 100	> 100											
COc1ccc(/C=N/NC(=O)NCCCN(C)C)cc1	> 100	> 100			> 100			> 100	> 100											
O=C(Nc1nc2ccc([N+](=O)[O-])cc2[n+]([O-])n1)C(F)(F)F			> 100		81.6	> 100		> 100				52.4			> 100		> 100			34
[C-]#[O+].[Cl][Sn]([Cl])[Cl].[Cl][Sn]([Cl])[Cl].[Pt].c1ccncc1	> 100				> 100			> 100			> 100	> 100		> 100	> 100					
c1ccc2c(c1)nc1n2CSC1	> 100	> 100	> 100	> 100	> 100		> 100	> 100	> 100											
CN1CCN(Cc2ccc(NC(=O)c3ccc(C#N)c(C#Cc4cnc(N)c5ncccc45)c3)cc2C(F)(F)F)CC1					8.04			> 100					1.82					3.87		
CC(/C=C/c1ccc([N+](=O)[O-])o1)=N/N1CC(CN2CCOCC2)OC1=O (centres undefined)			40.3		68.6	50.4		> 100				27			95.9		68			35.6
CC(C)=CCc1c(C)cc2cc3c(c(O)c2c1O)C(O)=CC(=O)C3(CC=C(C)C)C/C=C(\C)CO (centres undefined)	70.9	82		79.9	75.7			86.2	53.5			84.3			102					
COc1cc2c3c(n(CCN(C)C)c(=O)c2cc1OC)-c1cc2c(cc1C3=O)OCO2			> 100					> 100			0.297	> 33.8	< 0.0491	0.315	> 40	31.4	> 100	> 20.7		
Cc1nc2ccccc2c(=O)n1CC(=O)O	> 100	> 100		> 100	> 100			> 100	> 100			> 100			> 100					
O=C(O)c1cc(=O)[nH]c(=S)[nH]1			> 100		> 100			> 100				> 100			> 100		> 100			> 100
CC1(C)CCc2cc3c(-c4ccccc4)cc(=O)oc3cc2O1	> 100	> 100	> 100	> 100	> 100		> 100	> 100	> 100											
CCCCN(CCCC)CCCCNc1c(C)cnc2cc(Cl)ccc12		56.9	4.05	> 100	> 100		> 100	> 100	28.6											
CCOP(=O)(OCC)C(Cc1ccc(OC)c(OC)c1)N=C(c1ccccc1)c1ccccc1 (centres undefined)			> 100			46.4		> 100				55.5			> 100		> 100			> 100
Cc1ccc(S(=O)(=O)Oc2cc(S(=O)(=O)O)cc3cc(S(=O)(=O)O)cc(N)c23)cc1			> 100			> 100		> 100				> 100			> 100		> 100			> 100
CCN(CC)CCCC(Nc1c2ccc(Cl)cc2nc2ccc(OC)cc12)c1ccc(F)cc1 (centres undefined)			3.58		7.06	5.88				1.88	1.64	3.62	2.72	2.38	5.75	2.7	9.22		2.19	
Cc1cccc2c(N)c3cccc(C(=O)NCCN(C)C)c3nc12			0.422			0.0347									4.74		0.357			
Cc1ccc(/C(=C/C=C(C#N)C#N)Sc2cc(Cl)ccc2Cl)cc1			16.4					22.3				> 100			7.58					

Reference: PubChem BioAssay (NCI)
